Experimental data reported in patent publication US9012446B2, “Amino-oxazines and amino-dihydrothiazine compounds as beta-secretase modulators and methods of use” (Amgen Inc., priority 2010, dated 2015).
pIC50: −log10 of the molar value. Where two headings read alike, the source gives them in different places.

Tests used:
BACE = BACE (Homo sapiens, UniProt P56817); assay: In vitro enzymatic BACE FRET assay; format: biochemical; conditions: average IC50, enzyme assay; read-out: BACE 1 FRET assay
Experimental: In Vitro Enzymatic BACE FRET (Fluorescence Resonance Energy Transfer) Assay (Enzyme Assay Data in the Example Table I) The assay buffer used in this screen is 0.05 M acetate, pH 4.2, 10% DMSO final, 100 uM genapol (which is a nonionic detergent, below its Critical Micelle Concentration). The beta secretase enzyme (0.2 nM) is pre-incubated for one hour with inhibitors, typically in about 1 uL of DMSO according to a serial dilution, are added thereto. This assay is effectively started by the addition of FRET substrate (50 nM) and the combination is incubated for one hour. The FRET assay is terminated with by addition of Tris buffer, which raises the pH to neutrality, and the fluorescence is determined. The FRET substrate is a peptide with commercially available fluorophore and quencher, on opposite sides of the BACE cleavage site. Proteolytic cleavage of the FRET substrate releases quenching of fluorescence (excitation 488 nm and emission […]).

Aβ40 = assay: In vitro BACE cell-based assay (Aβ40 sandwich ELISA, cells stably expressing APP); conditions: Homo sapiens
Experimental: In Vitro BACE Cell-Based Assay […] Cells stably expressing Amyloid Precursor Protein (APP) were plated at a density of 40K cells/well in 96 well plates (Costar). The cells were cultivated for 24 hours at 37° C. and 5% CO2 in DMEM supplemented with 10% FBS. The test compounds were then added to cells in 10-point dose response concentrations with the starting concentration being either 100 μM or 10 μM. The compounds were diluted from stock solutions in DMSO and the final DMSO concentration of the test compounds on cells was 0.1%. […] The IC50 of the compound was calculated from the percent of control or percent inhibition of Aβ40 as a function of the concentration of the test compound. The sandwich ELISA to detect Aβ40 was performed in 96 well microtiter plates, which were pre-treated with goat anti-rabbit IgG (Pierce). […] The optimal concentration for the pAb40 antibody was 3 μg/ml in Superblock/TBS (Pierce) that was supplemented with 0.05% Tween 20 (Sigma). […] Cellular supernatants were incubated with the capture antibody for 3 h at 4° C., followed by 3 wash steps in TBS-tween (0.05%). The detecting antibody incubation was for 2 h at 4° C., again followed by the wash steps as described previously. The final readout of the ELISA is Time-Resolved Fluorescence (counts per minute) using Delfia reagents Streptavidin-Europium and Enhancement solutions (Perkin Elmer) and the Victor 2 multilabel counter (Perkin Elmer).

[1] = HEK293, average IC50, cell assay, HEK cells
[2] = HEK293, average IC50, read-out: HEK cell assay

Sequence of BACE (P56817 46-501, species assumed): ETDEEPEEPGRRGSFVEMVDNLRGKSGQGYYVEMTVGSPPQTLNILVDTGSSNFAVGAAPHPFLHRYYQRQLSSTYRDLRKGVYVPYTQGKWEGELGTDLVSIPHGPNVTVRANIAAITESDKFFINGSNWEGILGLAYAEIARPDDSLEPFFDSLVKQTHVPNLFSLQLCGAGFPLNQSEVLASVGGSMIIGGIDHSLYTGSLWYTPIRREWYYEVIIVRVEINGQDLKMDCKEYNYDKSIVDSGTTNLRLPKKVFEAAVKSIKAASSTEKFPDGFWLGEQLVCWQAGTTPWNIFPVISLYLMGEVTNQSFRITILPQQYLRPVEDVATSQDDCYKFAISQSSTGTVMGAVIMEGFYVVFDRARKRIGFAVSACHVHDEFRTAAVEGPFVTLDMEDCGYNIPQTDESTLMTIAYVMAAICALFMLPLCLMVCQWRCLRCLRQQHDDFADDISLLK

Row | Structure (SMILES) | pIC50 (BACE) | pIC50 (Aβ40; [1]) | pIC50 (Aβ40; [2])
1 | NC1=NC2(CCS1)c1cc(-c3cncnc3)ccc1Oc1ccc(-c3cncnc3)cc12 [compound 98] | 6.59 | 6.20 | –
2 | CC1(COc2cc(F)c3c(c2)[C@@]2(COCC(N)=N2)c2cc(-c4cccnc4F)ccc2O3)COC1 [compound 82] | 7.37 | 6.92 | –
3 | NC1=N[C@@]2(COC1)c1cc(-c3cc(F)ccc3F)ccc1Oc1ncc(C3=CCOCC3)cc12 [compound 218] | 8.89 | – | 8.59
4 | CC1(COc2cc(F)c3c(c2)[C@]2(COCC(N)=N2)c2cc(-c4cccnc4F)ccc2O3)COC1 [compound 83] | 9.40 | 9.40 | –
5 | NC1=N[C@]2(CCO1)c1cc(-c3cncc(F)c3)ccc1Oc1c2cc(C2=CCOCC2)nc1F [compound 229] | 6.83 | – | 6.90
6 | NC1=N[C@]2(COC1)c1cc(-c3cccnc3F)ccc1Oc1c2cc(Cl)nc1F [compound 244] | 6.32 | – | 5.50
7 | NC1=N[C@]2(CO[C@H]1C1CCCCC1)c1cc(-c3cccnc3F)ccc1Oc1cnc(Cl)cc12 (racemic) [Example 56B, (3′R,6′S)-3-chloro-6′-cyclohexyl-7-(2-fluoropyridin-3-yl)-2′,6′-dihydrospiro[chromeno[2,3-c]pyridine-5,3′-[1,4]oxazin]-5′-amine] | 5.89 | – | 6.35
8 | CC(C)(C)C#Cc1cc2c(cn1)Oc1ccc(-c3cncc(F)c3)cc1[C@@]21CCOC(N)=N1 [compound 139] | 7.89 | 8.16 | –
9 | NC1=N[C@@]2(COC1)c1cc(-c3cncc(F)c3)ccc1Oc1cnc(-c3ccnc(F)c3)cc12 [compound 113] | 9.30 | 9.00 | –
10 | NC1=N[C@@]2(COC1)c1cc(-c3cccnc3F)ccc1Oc1c(F)cc(N3CC[C@@H](F)C3)cc12 [compound 85] | 7.40 | 7.00 | –

Continued, values first:

Row | pIC50 (BACE) | pIC50 (Aβ40; [1]) | pIC50 (Aβ40; [2]) | Structure (SMILES)
11 | 7.48 | – | 7.38 | NC1=N[C@@]2(COC1)c1cc(-c3cncc(F)c3)ccc1Oc1cnc(Cl)cc12 [compound 257]
12 | 5.48 | – | 5.25 | NC1=N[C@]2(CCS1)c1cc(-c3cccnc3F)ccc1Oc1cnc(Cl)cc12 [compound 192]
13 | 9.30 | 8.55 | – | CC#Cc1cncc(-c2ccc3c(c2)[C@@]2(COCC(N)=N2)c2cc(-c4ccnc(F)c4)ncc2O3)c1 [compound 75]
14 | 6.25 | – | 6.20 | CC1(COc2cc(F)c3c(c2)[C@@]2(CCSC(N)=N2)c2cc(-c4cccnc4F)ccc2O3)COC1 [compound 198]
15 | 5.55 | 6.24 | – | NC1=N[C@]2(CCO1)c1cc(-c3cccnc3F)ccc1Oc1cnc(C3=CCOCC3)cc12 [compound 109]
16 | 8.92 | – | 7.80 | NC1=N[C@@]2(COC1)c1cc(-c3cccnc3F)ccc1Oc1c2cc(Cl)nc1F [compound 242]
17 | 8.82 | 7.81 | – | COc1cc(F)c2c(c1)[C@]1(COCC(N)=N1)c1cc(-c3cccnc3F)ccc1O2 [Example 48, (S)-4′-fluoro-7′-(2-fluoropyridin-3-yl)-2′-methoxy-2,6-dihydrospiro[[1,4]oxazine-3,9′-xanthen]-5-amine]
18 | 7.84 | 7.34 | – | NC1=NC2(CCO1)c1cc(-c3cccnc3F)ccc1Oc1c2cc(-c2cccnc2F)nc1F (stereo not drawn) [compound 101]
19 | 8.57 | – | 7.91 | NC1=N[C@@]2(CCS1)c1cc(-c3cccnc3F)ccc1Oc1c(F)cc(C3=CCOCC3)cc12 [compound 200]
20 | 6.80 | 6.38 | – | COc1cc(F)c2c(c1)[C@]1(COCC(N)=N1)c1cc(N3CCC(F)(F)CC3)ccc1O2 [Example 45, (S)-7′-(4,4-difluoropiperidin-1-yl)-4′-fluoro-2′-methoxy-2,6-dihydrospiro[[1,4]oxazine-3,9′-xanthen]-5-amine]
21 | 8.27 | – | 7.60 | CC(C)(C)C#Cc1ccc2c(c1)[C@@]1(COCC(N)=N1)c1cc(C#CC(C)(C)C)cnc1O2 [Example 53, (S)-3,7-bis(3,3-dimethylbut-1-ynyl)-2′,6′-dihydrospiro[chromeno[2,3-b]pyridine-5,3′-[1,4]oxazin]-5′-amine]
